Our source for the IC50 and inhibition values is patent US8168651B2, “Protein kinase modulators” (Cylene Pharmaceuticals, Inc., priority 2008, dated 2012).

A word on the pIC50: it is −log10 of the IC50, conventionally taken in molar units.

In experiment [1] the test system is HCT-116 human colorectal carcinoma cells. Description: Cell-proliferation assay using Alamar Blue dye.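 Also: cells exposed to compound for about 4 days, then Alamar Blue added and dye fluorescence read after about 4 h, compared with medium-only control wells.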 The experiment is classed as cell-based. The conditions noted are these: Homo sapiens, HCT-116, HCT-116, first column; read-out: HCT-116 (uM), cell proliferation modulatory activity.
In experiment [2] the target is recombinant human PIM1 (Homo sapiens (Human), UniProt P11309). Description: PIM-1 kinase activity in cell-free in vitro assay. In kind it is biochemical. The conditions noted are these: for inhibition at 0.5 µM: 500 nM compound, read-out: PIM-1: % inh 500 nM.

pIC50: −log10 of the molar value. Like-named read-outs stand apart in the source and are kept apart here.

Chain of recombinant human PIM1 (P11309 whole entry): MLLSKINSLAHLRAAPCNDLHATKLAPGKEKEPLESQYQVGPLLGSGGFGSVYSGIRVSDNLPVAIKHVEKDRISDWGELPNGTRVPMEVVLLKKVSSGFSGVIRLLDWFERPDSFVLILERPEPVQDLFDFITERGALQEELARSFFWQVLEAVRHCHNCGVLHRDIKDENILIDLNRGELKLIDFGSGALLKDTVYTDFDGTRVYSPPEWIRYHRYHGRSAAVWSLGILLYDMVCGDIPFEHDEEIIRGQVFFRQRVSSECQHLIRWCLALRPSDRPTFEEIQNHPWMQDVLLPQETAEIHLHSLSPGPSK

On to `O=C(NCCCO)c1ccc2c(c1)nc(NCCCO)c1ccsc12`, for which the IC50 in experiment [1] was 10 µM. In experiment [2] (cell-free), the inhibition at 0.5 µM was -24.7%. On to `CN(C)CCNc1nc2cc(C#N)ccc2c2ccccc12`, for which, in experiment [1], the IC50 stood at 0.5 µM. Further, the inhibition at 0.5 µM in experiment [2] (cell-free) is -63.6%.

In the case of `N#Cc1ccc2c(c1)nc(Nc1ccccc1)c1ccccc12`, the IC50 in experiment [1] turned out to be 10 µM. Besides, the inhibition at 0.5 µM in experiment [2] (cell-free) was -65.4%.

Regarding `c1ccc(Nc2nc3cc(-c4nnn[nH]4)ccc3c3ccccc23)cc1`, the IC50 in experiment [1] came out at 10 µM. Moreover, the inhibition at 0.5 µM in experiment [2] (cell-free) was determined as 15.8%. For the molecule `Clc1nc2ccccc2c2sccc12`, the IC50 in experiment [1] amounted to 10 µM. In experiment [2] (cell-free), the inhibition at 0.5 µM was -22.1%. In the case of `O=C(O)CNc1nc2cc(C(=O)O)ccc2c2sccc12`, in experiment [1], the IC50 is 10 µM. Further, the inhibition at 0.5 µM in experiment [2] (cell-free) was -26.1%. Take `O=C(O)c1ccc2c(c1)nc(Nc1nc3ccccc3[nH]1)c1ccsc12`: the IC50 in experiment [1] was found to be 10 µM. In addition, the inhibition at 0.5 µM in experiment [2] (cell-free) was -40.1%. For `O=C(O)c1ccc2c(c1)nc(N1CCCC1)c1ccsc12`, in experiment [1], the IC50 worked out at 10 µM. In experiment [2] (cell-free), the inhibition at 0.5 µM is -16%. Regarding `CCC(c1ccccc1)c1nc2cc(C(=O)O)ccc2c2sccc12` (stereo not drawn), the IC50 in experiment [1] is 10 µM. The inhibition at 0.5 µM in experiment [2] (cell-free) is 35.4%. The corresponding values for `N#Cc1ccc2c(c1)nc(OCCCO)c1ccccc12` are 10 µM and 3.04%.

As for `OCCCOc1nc2ccccc2c2ccccc12`, in experiment [1], the IC50 was 10 µM. Also, the inhibition at 0.5 µM in experiment [2] (cell-free) was found to be 7.28%. Consider `OCCCOc1nc2cc(-c3nnn[nH]3)ccc2c2ccccc12`, for which the IC50 in experiment [1] was 10 µM. For the same molecule, in experiment [2] (cell-free), the inhibition at 0.5 µM is 40.8%. As to `c1ccc(Nc2nc3ccccc3c3ccccc23)cc1`, the IC50 in experiment [1] turned out to be 10 µM. Further, in experiment [2] (cell-free), the inhibition at 0.5 µM was -23.9%. For `O=C(O)CNc1nc2ccccc2c2ccccc12`, the IC50 in experiment [1] was 10 µM. Also, in experiment [2] (cell-free), the inhibition at 0.5 µM was -17.5%. As to `CN(C)CCNc1nc2cc(-c3nnn[nH]3)ccc2c2ccccc12`, the IC50 in experiment [1] came out at 10 µM. For the same molecule, the inhibition at 0.5 µM in experiment [2] (cell-free) was 56.9%. With `COC(=O)c1ccc2c(c1)nc(Nc1ccccc1)c1ccsc12`, in experiment [1], the IC50 is 10 µM. The inhibition at 0.5 µM in experiment [2] (cell-free) is 2.59%.

As for `CS(=O)(=O)NC(=O)c1ccc2c(c1)nc(Nc1ccccc1)c1ccsc12`, the IC50 in experiment [1] turned out to be 10 µM. Further, the inhibition at 0.5 µM in experiment [2] (cell-free) is -15.7%. In the case of `COc1ccc(OC)c(Nc2nc3cc(-c4nnn[nH]4)ccc3c3sccc23)c1`, the inhibition at 0.5 µM in experiment [2] (cell-free) was 21.8%.

In the case of `c1ccc(Nc2nc3cc(-c4nnn[nH]4)ccc3c3cnccc23)cc1`, the inhibition at 0.5 µM in experiment [2] (cell-free) came out at 33.1%. Still for that read-out and setting: next, `CN(C)CCNc1nc2cc(-c3nnn[nH]3)ccc2c2cnccc12`: 38.1%; `FC(F)(F)Oc1cccc(Nc2nc3cc(-c4nnn[nH]4)ccc3c3sccc23)c1`: 30.7%; `CC(=O)Nc1cccc(Nc2nc3cc(-c4nnn[nH]4)ccc3c3sccc23)c1`: 27.1%.

With `Cc1cccc(Nc2nc3cc(-c4nnn[nH]4)ccc3c3sccc23)c1`, in experiment [2] (cell-free), the inhibition at 0.5 µM came to 58% and the pIC50 is 6.41. Consider `O=C(O)c1cccc(Nc2nc3cc(-c4nnn[nH]4)ccc3c3sccc23)c1`, for which, in experiment [2] (cell-free), the inhibition at 0.5 µM was 58% and the pIC50 is 6.19.

`O=C(O)c1ccc2c(c1)nc(Nc1cccc(Cl)c1)c1ccsc12`: in experiment [2] (cell-free), the inhibition at 0.5 µM was 81.1% and the pIC50 was 6.41.

Consider `C#Cc1cccc(Nc2nc3cc(C(=O)O)ccc3c3sccc23)c1`, for which the inhibition at 0.5 µM in experiment [2] (cell-free) was 26%.

Consider `CCCNC(=O)c1cccc(Nc2nc3cc(-c4nnn[nH]4)ccc3c3sccc23)c1`, for which the inhibition at 0.5 µM in experiment [2] (cell-free) is 47.7%. For `Fc1cc(Nc2nc3cc(-c4nnn[nH]4)ccc3c3cnccc23)ccc1Cl`, the inhibition at 0.5 µM in experiment [2] (cell-free) turned out to be 9.3%. For `O=C(O)c1ccc2c(c1)nc(Nc1ccccc1)c1nc(NC3CCNCC3)ncc12`, the inhibition at 0.5 µM in experiment [2] (cell-free assay) is -2.53%. Regarding `CCN(CC)CCNc1ncc2c(n1)c(Nc1ccccc1)nc1cc(C(=O)O)ccc12`, the inhibition at 0.5 µM in experiment [2] (cell-free assay) was 4.27%. In the case of `CCOc1ncc2c(n1)c(Nc1cccc(C(F)(F)F)c1)nc1cc(C(=O)O)ccc12`, in experiment [2] (cell-free assay), the inhibition at 0.5 µM was -5%. As for `CC(C)Nc1ncc2c(n1)c(Nc1cccc(Cl)c1)nc1cc(C(=O)O)ccc12`, the inhibition at 0.5 µM in experiment [2] (cell-free assay) is -0.505%. On to `O=C(O)c1ccc2c(c1)nc(Nc1cccc(Cl)c1)c1nc(O)ncc12`, for which, in experiment [2] (cell-free assay), the inhibition at 0.5 µM was found to be 3.53%. `Cc1ncc2c(n1)c(Nc1cccc(Cl)c1)nc1cc(C(=O)O)ccc12`: the inhibition at 0.5 µM in experiment [2] (cell-free assay) worked out at 12.9%. Still for that read-out and setting: next, `C#Cc1cccc(Nc2nc3cc(C(=O)OC)ccc3c3cnc(NOC)nc23)c1`: 0.371%; `O=C(O)CCNc1ncc2c(n1)c(Nc1cccc(Cl)c1)nc1cc(C(=O)O)ccc12`: 24.2%. On to `O=C(O)c1ccc2c(c1)nc(Nc1cccc(F)c1)c1nc(NC3CC3)ncc12`, for which, in experiment [2] (cell-free assay), the inhibition at 0.5 µM turned out to be 59.3%. On the same count and under the same terms, next, `O=C(O)c1ccc2c(c1)nc(N1CCN(c3cnccn3)CC1)c1ccncc12`: -2.36%. Turning to `COCCOc1cccc(Nc2nc3c(C(N)=O)cccc3c3cnccc23)c1`, the pIC50 in experiment [2] (Table 45) is > 6.30.

For the molecule `OCc1cccc2c1nc(Nc1cccc(Cl)c1)c1ccncc12`, in experiment [2] (Table 45), the negative-log IC50 (pIC50) is > 6.00. Take `O=C(O)c1cccc2c1nc(Nc1cccc(Cl)c1)c1cnccc12`: the pIC50 in experiment [2] (Table 45) is < 5.96. On the same count and under the same terms, next, `CN(C)CCNC(=O)c1cccc2c1nc(Nc1cccc(Cl)c1)c1ccncc12`: < 5.96; `COCCNC(=O)c1cccc2c1nc(Nc1cccc(Cl)c1)c1ccncc12`: < 5.96; `COC(=O)c1cccc2c1nc(Nc1cccc(Cl)c1)c1ccncc12`: < 5.96. As for `CN(C)C(=O)c1cccc2c1nc(Nc1cccc(Cl)c1)c1ccncc12`, the pIC50 in experiment [2] (Table 45) was < 5.96. Take `O=C(NCc1ccccc1)c1cccc2c1nc(Nc1cccc(Cl)c1)c1ccncc12`: the pIC50 in experiment [2] (Table 45) is < 5.96. Take `O=C(c1cccc2c1nc(Nc1cccc(Cl)c1)c1ccncc12)N1CCOCC1`: the negative-log IC50 (pIC50) in experiment [2] (Table 45) is < 5.96.

For `O=C(NC1CC1)c1cccc2c1nc(Nc1cccc(Cl)c1)c1ccncc12`, the pIC50 in experiment [2] (Table 45) is < 5.96. For `O=C(Nc1ccccc1)c1cccc2c1nc(Nc1cccc(Cl)c1)c1ccncc12`, the pIC50 in experiment [2] (Table 45) is < 5.96. Turning to `CONC(=O)c1cccc2c1nc(Nc1cccc(Cl)c1)c1ccncc12`, the pIC50 in experiment [2] (Table 45) was < 5.96. On to `NNC(=O)c1cccc2c1nc(Nc1cccc(Cl)c1)c1ccncc12`, for which the pIC50 in experiment [2] (Table 45) is > 5.30. Still for that read-out and setting: next, `Clc1cccc(Nc2nc3c(-c4nnco4)cccc3c3cnccc23)c1`: < 5.96; `N#Cc1cccc2c1nc(Nc1cccc(Cl)c1)c1ccncc12`: < 5.96. On to `NCc1ccc(Nc2nc3c(-c4nnc[nH]4)cccc3c3cnccc23)c(Cl)c1`, for which the pIC50 in experiment [2] was > 7.00. On the same count and under the same terms, next, `CN1CCN(c2ccc(Nc3nc4c(-c5nnc[nH]5)cccc4c4cnccc34)cc2)CC1`: > 6.30; `c1cc(-c2nnc[nH]2)c2nc(N3CCOCC3)c3ccncc3c2c1`: 5.40.

As to `COC(=O)c1cccc2c1nc(Cl)c1ccncc12` [drawing 2270], the pIC50 in experiment [2] (Table 45) was < 5.96. In the case of `O=C(O)c1cccc2c1nc(Nc1cccc(Cl)c1)c1ccncc12` [drawing 2271], the pIC50 in experiment [2] (Table 45) is < 5.96. With `COC(=O)c1cccc2c1nc(Nc1ccccc1)c1ccncc12` [drawing 2272], the negative logarithm of the IC50 (pIC50) in experiment [2] (Table 45) is < 5.96.

On to `O=C(O)c1cccc2c1nc(Nc1ccccc1)c1ccncc12` [drawing 2273], for which the pIC50 in experiment [2] (Table 45) was < 5.96. The same measure, in the same setting: next, `CNC(=O)c1cccc2c1nc(Nc1cccc(Cl)c1)c1ccncc12` [drawing 2277]: < 5.96.
